Reference: ChEMBL document CHEMBL2380271, “Synthesis and biological evaluation of a class of quinolone triazoles as potential antimicrobial agents and their interactions with calf thymus DNA” (2013)
In brackets after ≈: the same amount, converted by molar mass. Activity calls are given as the source filed them. No cut-off for these calls is given here.

Legend:
[1] = tested on: Saccharomyces cerevisiae; test: Antifungal activity against Saccharomyces cerevisiae by NCCLS method; format: functional
[2] = tested on: Cyberlindnera jadinii; test: Antifungal activity against Candida utilis by NCCLS method; format: functional; conditions: Williopsis jadinii
[3] = tested on: Shigella dysenteriae; test: Antibacterial activity against Shigella dysenteriae by NCCLS method; format: functional
[4] = tested on: Pseudomonas aeruginosa; test: Antibacterial activity against Pseudomonas aeruginosa by NCCLS method; format: functional
[5] = tested on: Escherichia coli; test: Antibacterial activity against Escherichia coli DH52 by NCCLS method; format: functional
[6] = tested on: Staphylococcus aureus; test: Antibacterial activity against Staphylococcus aureus ATCC 25923 by NCCLS method; format: functional
[7] = tested on: Salmonella typhi; test: Antibacterial activity against Eberthella typhosa by NCCLS method; format: functional, Salmonella enterica subsp. enterica serovar Typhi; conditions: Salmonella enterica
[8] = tested on: Micrococcus luteus; test: Antibacterial activity against Micrococcus luteus ATCC 4698 by NCCLS method; format: functional
[9] = tested on: Aspergillus flavus; test: Antifungal activity against Aspergillus flavus by NCCLS method; format: functional
[10] = tested on: Candida albicans; test: Antifungal activity against Candida albicans by NCCLS method; format: functional
[11] = tested on: Staphylococcus aureus; test: Antibacterial activity against methicillin-resistant Staphylococcus aureus N315 by NCCLS method; format: functional
[12] = tested on: DNA; test: Binding affinity to calf thymus DNA by fluorescence quenching assay in presence of potassium iodide; format: nucleic-acid assay; conditions: Bos taurus
[13] = tested on: DNA; test: Competitive binding affinity to calf thymus DNA by UV-vis spectroscopic analysis in presence of neutral red; format: nucleic-acid assay; conditions: Bos taurus
[14] = tested on: DNA; test: Binding affinity to calf thymus DNA-NR complex assessed as increase in fluorescence intensity at 726 nm wavelength; format: nucleic-acid assay; conditions: Bos taurus
[15] = tested on: DNA; test: Binding affinity to calf thymus DNA at 0.5 to 3x10'-5 mol/L by fluorescence quenching assay; format: nucleic-acid assay; conditions: Bos taurus
[16] = tested on: DNA; test: Binding affinity to calf thymus DNA assessed as blue shift by UV-vis spectroscopic analysis; format: nucleic-acid assay; conditions: Bos taurus
[17] = tested on: DNA; test: Binding affinity to calf thymus DNA-NR complex assessed as decrease in fluorescence intensity at 640 nm wavelength; format: nucleic-acid assay; conditions: Bos taurus
[18] = tested on: Staphylococcus aureus; test: Ratio of norfloxacin MIC to compound MIC for methicillin-resistant Staphylococcus aureus N315; format: functional
[19] = tested on: Staphylococcus aureus; test: Ratio of chloromycin MIC to compound MIC for methicillin-resistant Staphylococcus aureus N315; format: functional

| Structure (SMILES) | MIC [1] [µg/mL] | MIC [2] [µg/mL] | MIC [3] [µg/mL] | MIC [4] [µg/mL] | MIC [5] [µg/mL] | MIC [6] [µg/mL] | MIC [7] [µg/mL] | MIC [8] [µg/mL] | MIC [9] [µg/mL] | MIC [10] [µg/mL] | MIC [11] [µg/mL] | KSV [12] [L/mol] | Activity [13] | Activity [14] | Activity [15] | K [16] [×10³ L/mol] | Activity [17] | Ratio [18] | Ratio [19] |
| --- | --- | --- | --- | --- | --- | --- | --- | --- | --- | --- | --- | --- | --- | --- | --- | --- | --- | --- | --- |
| O=C(O)c1cn(CC(O)Cn2cncn2)c2c(F)cc(F)cc2c1=O (stereo not drawn) | 512 (≈ 1460 µM) | > 512 | 16 (≈ 45.7 µM) | 2 (≈ 5.71 µM) | 2 (≈ 5.71 µM) | 2 (≈ 5.71 µM) | 1 (≈ 2.85 µM) | 2 (≈ 5.71 µM) | 256 (≈ 731 µM) | 8 (≈ 22.8 µM) | 8 (≈ 22.8 µM) |  |  |  |  |  |  |  |  |
| Cc1ccc2c(c1)c(=O)c(C(=O)O)cn2CC(O)Cn1cncn1 (stereo not drawn) | 4 (≈ 12.2 µM) | > 512 | 32 (≈ 97.5 µM) | 16 (≈ 48.7 µM) | 32 (≈ 97.5 µM) | 32 (≈ 97.5 µM) | 8 (≈ 24.4 µM) | 16 (≈ 48.7 µM) | 0.5 (≈ 1.52 µM) | 2 (≈ 6.09 µM) | 8 (≈ 24.4 µM) | 6.53 | Active | Active | Active | 1.43 | Active |  |  |
| O=C(O)c1cn(CC(O)Cn2cncn2)c2ccc(F)cc2c1=O (stereo not drawn) | 512 (≈ 1540 µM) | > 512 | 0.5 (≈ 1.5 µM) | 8 (≈ 24.1 µM) | 32 (≈ 96.3 µM) | 128 (≈ 385 µM) | 1 (≈ 3.01 µM) | 32 (≈ 96.3 µM) | 512 (≈ 1540 µM) | 64 (≈ 193 µM) | 1 (≈ 3.01 µM) |  |  |  |  |  |  | 8 | 16 |
| O=C(O)c1cn(CC(O)Cn2cncn2)c2cc(C(F)(F)F)ccc2c1=O (stereo not drawn) | 256 (≈ 670 µM) | > 512 | 1 (≈ 2.62 µM) | 8 (≈ 20.9 µM) | 8 (≈ 20.9 µM) | 1 (≈ 2.62 µM) | 4 (≈ 10.5 µM) | 2 (≈ 5.23 µM) | 512 (≈ 1340 µM) | 1 (≈ 2.62 µM) | 1 (≈ 2.62 µM) |  |  |  |  |  |  | 8 | 16 |
| O=C(O)c1cn(CC(O)Cn2cncn2)c2cc(Cl)c(F)cc2c1=O (stereo not drawn) | 256 (≈ 698 µM) | > 512 | 64 (≈ 175 µM) | 2 (≈ 5.45 µM) | 8 (≈ 21.8 µM) | 64 (≈ 175 µM) | 4 (≈ 10.9 µM) | 16 (≈ 43.6 µM) | 128 (≈ 349 µM) | 16 (≈ 43.6 µM) | 64 (≈ 175 µM) |  |  |  |  |  |  |  |  |
| O=C(O)c1cn(CC(O)Cn2cncn2)c2c(Cl)cc(Cl)cc2c1=O (stereo not drawn) | 128 (≈ 334 µM) | > 512 | 4 (≈ 10.4 µM) | 8 (≈ 20.9 µM) | 64 (≈ 167 µM) | 64 (≈ 167 µM) | 16 (≈ 41.8 µM) | 64 (≈ 167 µM) | 256 (≈ 668 µM) | 32 (≈ 83.5 µM) | 4 (≈ 10.4 µM) |  |  |  |  |  |  |  |  |
| O=C(O)c1cn(CC(O)Cn2cncn2)c2c(F)cccc2c1=O (stereo not drawn) | 256 (≈ 770 µM) | > 512 | 1 (≈ 3.01 µM) | 8 (≈ 24.1 µM) | 4 (≈ 12 µM) | 32 (≈ 96.3 µM) | 64 (≈ 193 µM) | 8 (≈ 24.1 µM) | 128 (≈ 385 µM) | 16 (≈ 48.2 µM) | 64 (≈ 193 µM) |  |  |  |  |  |  |  |  |
| CCOC(=O)c1cn(CC(O)Cn2cncn2)c2cc(C(F)(F)F)ccc2c1=O (racemic) | 64 (≈ 156 µM) | 128 (≈ 312 µM) | 32 (≈ 78 µM) | 1 (≈ 2.44 µM) | 32 (≈ 78 µM) | 16 (≈ 39 µM) | 0.5 (≈ 1.22 µM) | 2 (≈ 4.87 µM) | 8 (≈ 19.5 µM) | 64 (≈ 156 µM) | 32 (≈ 78 µM) |  |  |  |  |  |  |  |  |
| CCOC(=O)c1cn(CC(O)Cn2cncn2)c2cc(Cl)c(F)cc2c1=O (racemic) | 512 (≈ 1300 µM) | > 512 | 32 (≈ 81.1 µM) | 4 (≈ 10.1 µM) | 32 (≈ 81.1 µM) | 64 (≈ 162 µM) | 1 (≈ 2.53 µM) | 4 (≈ 10.1 µM) | 16 (≈ 40.5 µM) | 8 (≈ 20.3 µM) | 4 (≈ 10.1 µM) |  |  |  |  |  |  |  |  |
| CCOC(=O)c1cn(CC(O)Cn2cncn2)c2c(Cl)cc(Cl)cc2c1=O (racemic) | 32 (≈ 77.8 µM) | > 512 | 128 (≈ 311 µM) | 4 (≈ 9.73 µM) | 4 (≈ 9.73 µM) | 1 (≈ 2.43 µM) | 4 (≈ 9.73 µM) | 8 (≈ 19.5 µM) | 0.5 (≈ 1.22 µM) | 512 (≈ 1240 µM) | 1 (≈ 2.43 µM) |  |  |  |  |  |  | 8 | 16 |
| CCOC(=O)c1cn(CC(O)Cn2cncn2)c2c(F)cccc2c1=O (racemic) | 32 (≈ 88.8 µM) | > 512 | 8 (≈ 22.2 µM) | 32 (≈ 88.8 µM) | 8 (≈ 22.2 µM) | 64 (≈ 178 µM) | 0.5 (≈ 1.39 µM) | 2 (≈ 5.55 µM) | 512 (≈ 1420 µM) | 32 (≈ 88.8 µM) | 128 (≈ 355 µM) |  |  |  |  |  |  |  |  |
